Laboratory results as given in patent US20230357447A1, “TUMOR ACTIVATED MULTISPECIFIC ANTIBODIES FOR TARGETING CD28 AND PD-L1 AND METHODS OF USE THEREOF” (Janux Therapeutics, Inc., priority 2022, published 2023).

What was measured:
[1] = tested on: anti-CD28 scFv (SEQ ID NO: 9); assay: Octet bio-layer interferometry kinetic binding of anti-CD28 scFv to peptides; design: species or system human; conditions: Octet RED96, 1:1 binding model
Experimental: (§1) Association and dissociation signals were recorded in real time and analyzed using a 1:1 binding model within the instrument software. Analysis using a 1:1 binding model enabled the calculation of the on and off rate constants as well as affinity, KD.
as §1

Ab-12 = assay: Octet bio-layer interferometry kinetic binding of Ab-12 to peptides; conditions: Octet RED96, 1:1 binding model
Experimental: Briefly, streptavidin biosensors were loaded with biotinylated peptides and baselined in buffer. […] After a short association period, sensors were transferred into buffer and the dissociation of bound anti-CD28 scFv or Ab-12 was measured. The timing and steps of the experiment are shown in the accompanying table. Association and dissociation signals were recorded in real time and analyzed using a 1:1 binding model within the instrument software. Analysis using a 1:1 binding model enabled the calculation of the on and off rate constants as well as affinity, KD.

[2] = biotinylated peptide loaded on streptavidin biosensor, anti-CD28 scFv in solution

Structure (SMILES)	kdis [1, 2]	further results
CSCC[C@H](N)C(=O)N[C@@H](CC(=O)O)C(=O)N[C@@H](Cc1c[nH]c2ccccc12)C(=O)N[C@H]1CSSC[C@@H](C(=O)N[C@@H](Cc2ccccc2)C(=O)N[C@@H](Cc2ccccc2)C(=O)O)NC(=O)[C@H](CC(=O)O)NC(=O)[C@H](C(C)C)NC(=O)[C@H](Cc2c[nH]c3ccccc23)NC(=O)[C@H](CCCNC(=N)N)NC(=O)[C@H](CCC(=O)O)NC(=O)[C@H](CCCNC(=N)N)NC(=O)[C@@H]2CCCN2C1=O [Peptide-9]	0.0115 s⁻¹	kdis ([1]; peptide on sensor, CD28 scFv 100-12.5 nM): 0.0123 s⁻¹; Kd (Ab-12; biotinylated peptide loaded at 200 nM on streptavidin biosensors, Ab-12 100, 50, 25, 12.5 nM): 18.8 nM; kdis (Ab-12; peptide on sensor, Ab-12 100-12.5 nM): 0.00317 s⁻¹
CSCC[C@@H]1NC(=O)[C@H](Cc2c[nH]cn2)NC(=O)[C@H](CC(C)C)NC(=O)[C@@H]2CCCN2C(=O)[C@@H](NC(=O)[C@H](Cc2c[nH]c3ccccc23)NC(=O)[C@H](CC(=O)O)NC(=O)[C@@H](N)CCSC)CSSC[C@@H](C(=O)N[C@@H](Cc2ccccc2)C(=O)N[C@@H](CO)C(=O)O)NC(=O)[C@H](CCC(=O)O)NC(=O)[C@H](Cc2c[nH]cn2)NC(=O)[C@H](Cc2c[nH]c3ccccc23)NC1=O [Peptide-35]	0.00497 s⁻¹	
CSCC[C@H](N)C(=O)N[C@@H](CC(=O)O)C(=O)N[C@@H](Cc1c[nH]c2ccccc12)C(=O)N[C@H]1CSSC[C@@H](C(=O)N[C@@H](Cc2ccccc2)C(=O)N[C@@H](Cc2ccccc2)C(=O)O)NC(=O)[C@H](CCC(=O)O)NC(=O)[C@H](CO)NC(=O)[C@H](Cc2c[nH]c3ccccc23)NC(=O)[C@H](CC(C)C)NC(=O)[C@H](CC(=O)O)NC(=O)[C@H](CCCNC(=N)N)NC(=O)[C@@H]2CCCN2C1=O [Peptide-40]	0.0031 s⁻¹	
CSCC[C@H](N)C(=O)N[C@@H](CC(=O)O)C(=O)N[C@@H](Cc1c[nH]c2ccccc12)C(=O)N[C@H]1CSSC[C@@H](C(=O)N[C@@H](Cc2ccccc2)C(=O)N[C@@H](CC(N)=O)C(=O)O)NC(=O)[C@H](CCC(=O)O)NC(=O)[C@H](CC(N)=O)NC(=O)[C@H](Cc2c[nH]c3ccccc23)NC(=O)[C@H](CC(C)C)NC(=O)[C@H](Cc2ccc(O)cc2)NC(=O)[C@H](CC(C)C)NC(=O)[C@@H]2CCCN2C1=O [Peptide-36]	0.00252 s⁻¹	
CSCC[C@@H]1NC(=O)[C@H](CC(=O)O)NC(=O)[C@H](CCCNC(=N)N)NC(=O)[C@@H]2CCCN2C(=O)[C@@H](NC(=O)[C@H](Cc2c[nH]c3ccccc23)NC(=O)[C@H](CC(=O)O)NC(=O)[C@@H](N)CCSC)CSSC[C@@H](C(=O)N[C@@H](Cc2ccccc2)C(=O)N[C@@H](C)C(=O)O)NC(=O)[C@H](CCC(=O)O)NC(=O)[C@H](CO)NC(=O)[C@H](Cc2c[nH]c3ccccc23)NC1=O [Peptide-43]	0.0032 s⁻¹	
CSCC[C@H](N)C(=O)N[C@@H](CC(=O)O)C(=O)N[C@@H](Cc1c[nH]c2ccccc12)C(=O)N[C@H]1CSSC[C@@H](C(=O)N[C@@H](Cc2ccccc2)C(=O)N[C@@H](C)C(=O)O)NC(=O)[C@H](C(C)C)NC(=O)[C@H](CO)NC(=O)[C@H](Cc2c[nH]c3ccccc23)NC(=O)[C@H](CC(C)C)NC(=O)[C@H](Cc2c[nH]cn2)NC(=O)[C@H](C(C)C)NC(=O)[C@@H]2CCCN2C1=O [Peptide-50]	0.00443 s⁻¹	
CSCC[C@@H]1NC(=O)[C@H](CC(=O)O)NC(=O)[C@H](CCCNC(=N)N)NC(=O)[C@@H]2CCCN2C(=O)[C@@H](NC(=O)[C@H](Cc2c[nH]c3ccccc23)NC(=O)[C@H](CC(=O)O)NC(=O)[C@@H](N)CCSC)CSSC[C@@H](C(=O)N[C@@H](Cc2ccccc2)C(=O)N[C@@H](CO)C(=O)O)NC(=O)[C@H](C(C)C)NC(=O)[C@H](CO)NC(=O)[C@H](Cc2c[nH]c3ccccc23)NC1=O [Peptide-44]	0.00812 s⁻¹	
CC[C@H](C)[C@@H]1NC(=O)[C@@H]2CCCN2C(=O)[C@@H](NC(=O)[C@H](Cc2c[nH]c3ccccc23)NC(=O)[C@H](CC(=O)O)NC(=O)[C@@H](N)CCSC)CSSC[C@@H](C(=O)N[C@@H](Cc2ccccc2)C(=O)N[C@@H](CC(N)=O)C(=O)O)NC(=O)[C@H](C(C)C)NC(=O)[C@H](Cc2c[nH]cn2)NC(=O)[C@H](Cc2c[nH]c3ccccc23)NC(=O)[C@H](CC(C)C)NC(=O)[C@H](Cc2c[nH]cn2)NC1=O [Peptide-32]	0.00295 s⁻¹	
CC[C@H](C)[C@@H]1NC(=O)[C@H](CC(=O)O)NC(=O)[C@H](CCCCN)NC(=O)[C@@H]2CCCN2C(=O)[C@@H](NC(=O)[C@H](Cc2c[nH]c3ccccc23)NC(=O)[C@H](CC(N)=O)NC(=O)[C@@H](N)CCSC)CSSC[C@@H](C(=O)N[C@@H](Cc2ccccc2)C(=O)N[C@@H](CC(N)=O)C(=O)O)NC(=O)[C@H](CC(C)C)NC(=O)[C@H](Cc2ccc(O)cc2)NC(=O)[C@H](Cc2c[nH]c3ccccc23)NC1=O [Peptide-34]	0.00684 s⁻¹	
CSCC[C@@H]1NC(=O)[C@H](CC(=O)O)NC(=O)[C@H](CCCNC(=N)N)NC(=O)[C@@H]2CCCN2C(=O)[C@@H](NC(=O)[C@H](Cc2c[nH]c3ccccc23)NC(=O)[C@H](CC(=O)O)NC(=O)[C@@H](N)CCSC)CSSC[C@@H](C(=O)N[C@@H](Cc2ccccc2)C(=O)N[C@@H](C)C(=O)O)NC(=O)[C@H](CCC(=O)O)NC(=O)[C@H](CC(=O)O)NC(=O)[C@H](Cc2c[nH]c3ccccc23)NC1=O [Peptide-42]	0.00433 s⁻¹	
CSCC[C@H](N)C(=O)N[C@@H](CC(=O)O)C(=O)N[C@@H](Cc1c[nH]c2ccccc12)C(=O)N[C@H]1CSSC[C@@H](C(=O)N[C@@H](Cc2ccccc2)C(=O)N[C@@H](CO)C(=O)O)NC(=O)[C@H](CC(C)C)NC(=O)[C@H](Cc2c[nH]cn2)NC(=O)[C@H](Cc2c[nH]c3ccccc23)NC(=O)[C@H](CC(C)C)NC(=O)[C@H](CC(=O)O)NC(=O)[C@H](CCCNC(=N)N)NC(=O)[C@@H]2CCCN2C1=O [Peptide-39]	0.00265 s⁻¹	
CSCC[C@H](N)C(=O)N[C@@H](CC(=O)O)C(=O)N[C@@H](Cc1c[nH]c2ccccc12)C(=O)N[C@H]1CSSC[C@@H](C(=O)N[C@@H](Cc2ccccc2)C(=O)N[C@@H](C)C(=O)O)NC(=O)[C@H](CCC(=O)O)NC(=O)[C@H](Cc2c[nH]cn2)NC(=O)[C@H](Cc2c[nH]c3ccccc23)NC(=O)[C@H](CC(C)C)NC(=O)[C@H](CC(=O)O)NC(=O)[C@H](CCCNC(=N)N)NC(=O)[C@@H]2CCCN2C1=O [Peptide-38]	0.00277 s⁻¹	
CSCC[C@H](N)C(=O)N[C@@H](CC(=O)O)C(=O)N[C@@H](Cc1c[nH]c2ccccc12)C(=O)N[C@H]1CSSC[C@@H](C(=O)N[C@@H](Cc2ccccc2)C(=O)N[C@@H](C)C(=O)O)NC(=O)[C@H](CCC(=O)O)NC(=O)[C@H](Cc2c[nH]cn2)NC(=O)[C@H](Cc2c[nH]c3ccccc23)NC(=O)[C@H](CC(C)C)NC(=O)[C@H](CO)NC(=O)[C@H](CCCNC(=N)N)NC(=O)[C@@H]2CCCN2C1=O [Peptide-47]	0.00201 s⁻¹	
CSCC[C@H](N)C(=O)N[C@@H](CC(=O)O)C(=O)N[C@@H](Cc1c[nH]c2ccccc12)C(=O)N[C@H]1CSSC[C@@H](C(=O)N[C@@H](Cc2ccccc2)C(=O)N[C@@H](C)C(=O)O)NC(=O)[C@H](Cc2c[nH]cn2)NC(=O)[C@H](C(C)C)NC(=O)[C@H](Cc2c[nH]c3ccccc23)NC(=O)[C@H](CC(C)C)NC(=O)[C@H](CC(=O)O)NC(=O)[C@H](CCCNC(=N)N)NC(=O)[C@@H]2CCCN2C1=O [Peptide-41]	0.00154 s⁻¹	
CC[C@H](C)[C@@H]1NC(=O)[C@@H]2CCCN2C(=O)[C@@H](NC(=O)[C@H](Cc2c[nH]c3ccccc23)NC(=O)[C@H](CC(=O)O)NC(=O)[C@@H](N)CCSC)CSSC[C@@H](C(=O)N[C@@H](Cc2ccccc2)C(=O)N[C@@H](Cc2ccccc2)C(=O)O)NC(=O)[C@H](CCC(=O)O)NC(=O)[C@H](CC(N)=O)NC(=O)[C@H](Cc2c[nH]c3ccccc23)NC(=O)[C@H](CC(C)C)NC(=O)[C@H](CC(=O)O)NC1=O [Peptide-31]	0.00369 s⁻¹	
CC[C@H](C)[C@@H]1NC(=O)[C@@H]2CCCN2C(=O)[C@@H](NC(=O)[C@H](Cc2c[nH]c3ccccc23)NC(=O)[C@H](CC(=O)O)NC(=O)[C@@H](N)CCSC)CSSC[C@@H](C(=O)N[C@@H](Cc2ccccc2)C(=O)N[C@@H](CC(N)=O)C(=O)O)NC(=O)[C@H](CCC(=O)O)NC(=O)[C@H](CO)NC(=O)[C@H](Cc2c[nH]c3ccccc23)NC(=O)[C@H](CC(C)C)NC(=O)[C@H](Cc2ccc(O)cc2)NC1=O [Peptide-33]	0.00153 s⁻¹	
CSCC[C@H](N)C(=O)N[C@@H](CC(=O)O)C(=O)N[C@@H](Cc1c[nH]c2ccccc12)C(=O)N[C@H]1CSSC[C@@H](C(=O)N[C@@H](Cc2ccccc2)C(=O)N[C@@H](C)C(=O)O)NC(=O)[C@H](C(C)C)NC(=O)[C@H](Cc2c[nH]cn2)NC(=O)[C@H](Cc2c[nH]c3ccccc23)NC(=O)[C@H](CC(C)C)NC(=O)[C@H](Cc2ccc(O)cc2)NC(=O)[C@H](CCCNC(=N)N)NC(=O)[C@@H]2CCCN2C1=O [Peptide-48]	0.00187 s⁻¹	
CSCC[C@H](N)C(=O)N[C@@H](CC(=O)O)C(=O)N[C@@H](Cc1c[nH]c2ccccc12)C(=O)N[C@H]1CSSC[C@@H](C(=O)N[C@@H](Cc2ccccc2)C(=O)N[C@@H](C)C(=O)O)NC(=O)[C@H](CC(C)C)NC(=O)[C@H](CC(=O)O)NC(=O)[C@H](Cc2c[nH]c3ccccc23)NC(=O)[C@H](CC(C)C)NC(=O)[C@H](CC(=O)O)NC(=O)[C@H](CCCNC(=N)N)NC(=O)[C@@H]2CCCN2C1=O [Peptide-37]	0.00351 s⁻¹	
CSCC[C@@H]1NC(=O)[C@H](Cc2ccccc2)NC(=O)[C@H](CCCNC(=N)N)NC(=O)[C@@H]2CCCN2C(=O)[C@@H](NC(=O)[C@H](Cc2c[nH]c3ccccc23)NC(=O)[C@H](CC(=O)O)NC(=O)[C@@H](N)CCSC)CSSC[C@@H](C(=O)N[C@@H](Cc2ccccc2)C(=O)N[C@@H](CC(N)=O)C(=O)O)NC(=O)[C@H](CCC(=O)O)NC(=O)[C@H](CC(=O)O)NC(=O)[C@H](Cc2c[nH]c3ccccc23)NC1=O [Peptide-45]	0.00364 s⁻¹	
